Reference: PubChem BioAssay (NCI)
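Exposure lasted 48 hours, with cells grown in 96-well plates and compounds tested at five concentrations. At the GI50, growth is halved. Definition used: TGI = concentration required for complete inhibition of growth.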

Columns and labels:
Assay in all cases: NCI anticancer screen, dose series, 48 h
786-0 renal = tested on: 786-0 renal
A498 renal = tested on: A498 renal
A549 NSCLC = tested on: A549 NSCLC
ACHN renal = tested on: ACHN renal
BT-549 breast = tested on: BT-549 breast
CAKI-1 renal = tested on: CAKI-1 renal
CCRF-CEM leukemia = tested on: CCRF-CEM leukemia
COLO 205 colon = tested on: COLO 205 colon
DU-145 prostate = tested on: DU-145 prostate
EKVX NSCLC = tested on: EKVX NSCLC
HCC-2998 colon = tested on: HCC-2998 colon
HCT-116 colon = tested on: HCT-116 colon
HCT-15 colon = tested on: HCT-15 colon
HL-60(TB) leukemia = tested on: HL-60(TB) leukemia
HOP-62 NSCLC = tested on: HOP-62 NSCLC
HOP-92 NSCLC = tested on: HOP-92 NSCLC
HS 578T breast = tested on: HS 578T breast
HT29 colon = tested on: HT29 colon
IGROV1 ovarian = tested on: IGROV1 ovarian
K-562 leukemia = tested on: K-562 leukemia
KM12 colon = tested on: KM12 colon
LOX IMVI melanoma = tested on: LOX IMVI melanoma
M14 melanoma = tested on: M14 melanoma
MALME-3M melanoma = tested on: MALME-3M melanoma
MCF7 breast = tested on: MCF7 breast
MDA-MB-231 breast = tested on: MDA-MB-231 breast
MDA-MB-435 = tested on: MDA-MB-435
MOLT-4 leukemia = tested on: MOLT-4 leukemia
NCI-H226 lung = tested on: NCI-H226 lung
NCI-H23 lung = tested on: NCI-H23 lung
NCI-H460 lung = tested on: NCI-H460 lung
NCI-H522 lung = tested on: NCI-H522 lung
NCI/ADR-RES ovarian = tested on: NCI/ADR-RES ovarian
OVCAR-3 ovarian = tested on: OVCAR-3 ovarian
OVCAR-4 ovarian = tested on: OVCAR-4 ovarian
OVCAR-5 ovarian = tested on: OVCAR-5 ovarian
OVCAR-8 ovarian = tested on: OVCAR-8 ovarian
PC-3 prostate = tested on: PC-3 prostate
RPMI-8226 leukemia = tested on: RPMI-8226 leukemia
RXF 393 renal = tested on: RXF 393 renal
SF-268 CNS = tested on: SF-268 CNS
SF-295 CNS = tested on: SF-295 CNS
SF-539 CNS = tested on: SF-539 CNS
SK-MEL-2 melanoma = tested on: SK-MEL-2 melanoma
SK-MEL-28 melanoma = tested on: SK-MEL-28 melanoma
SK-MEL-5 melanoma = tested on: SK-MEL-5 melanoma
SK-OV-3 ovarian = tested on: SK-OV-3 ovarian
SN12C renal = tested on: SN12C renal
SNB-19 CNS = tested on: SNB-19 CNS
SNB-75 CNS = tested on: SNB-75 CNS
SR leukemia = tested on: SR leukemia
T-47D breast = tested on: T-47D breast
TK-10 renal = tested on: TK-10 renal
U251 CNS = tested on: U251 CNS
UACC-257 melanoma = tested on: UACC-257 melanoma
UACC-62 melanoma = tested on: UACC-62 melanoma
UO-31 renal = tested on: UO-31 renal

Structure (SMILES): Cc1cc2cc3cc(C)c(N)cc3[n+](C)c2cc1N
- GI50 (786-0 renal): 2.6 µM
- TGI (786-0 renal): 11.5 µM
- GI50 (A498 renal): 2.54 µM
- TGI (A498 renal): 8.76 µM
- GI50 (A549 NSCLC): 1 µM
- TGI (A549 NSCLC): 10.9 µM
- GI50 (ACHN renal): 1.95 µM
- TGI (ACHN renal): 8.27 µM
- GI50 (BT-549 breast): 2.34 µM
- TGI (BT-549 breast): 9.31 µM
- GI50 (CAKI-1 renal): 3.44 µM
- TGI (CAKI-1 renal): 21.6 µM
- GI50 (CCRF-CEM leukemia): 1.36 µM
- TGI (CCRF-CEM leukemia): 17.5 µM
- GI50 (COLO 205 colon): 1.15 µM
- TGI (COLO 205 colon): 2.87 µM
- GI50 (DU-145 prostate): 1.77 µM
- TGI (DU-145 prostate): 9.64 µM
- GI50 (EKVX NSCLC): 1.36 µM
- TGI (EKVX NSCLC): 14.1 µM
- GI50 (HCC-2998 colon): 1.45 µM
- TGI (HCC-2998 colon): 4.26 µM
- GI50 (HCT-116 colon): 1.15 µM
- TGI (HCT-116 colon): 4.66 µM
- GI50 (HCT-15 colon): 2.65 µM
- TGI (HCT-15 colon): 11.7 µM
- GI50 (HL-60(TB) leukemia): 2.31 µM
- TGI (HL-60(TB) leukemia): 7.74 µM
- GI50 (HOP-62 NSCLC): 0.518 µM
- TGI (HOP-62 NSCLC): 4.21 µM
- GI50 (HOP-92 NSCLC): 1.44 µM
- TGI (HOP-92 NSCLC): 5.99 µM
- GI50 (HS 578T breast): 1.12 µM
- TGI (HS 578T breast): 8.72 µM
- GI50 (HT29 colon): 1.41 µM
- TGI (HT29 colon): 6 µM
- GI50 (IGROV1 ovarian): 2.66 µM
- TGI (IGROV1 ovarian): 15.3 µM
- GI50 (K-562 leukemia): 1.64 µM
- TGI (K-562 leukemia): 9.47 µM
- GI50 (KM12 colon): 1.1 µM
- TGI (KM12 colon): 4.29 µM
- GI50 (LOX IMVI melanoma): 1.35 µM
- TGI (LOX IMVI melanoma): 3.34 µM
- GI50 (M14 melanoma): 1.8 µM
- TGI (M14 melanoma): 4.82 µM
- GI50 (MALME-3M melanoma): 2.38 µM
- TGI (MALME-3M melanoma): 6.86 µM
- GI50 (MCF7 breast): 0.476 µM
- TGI (MCF7 breast): 6.08 µM
- GI50 (MDA-MB-231 breast): 1.59 µM
- TGI (MDA-MB-231 breast): 8.39 µM
- GI50 (MDA-MB-435): 2.21 µM
- TGI (MDA-MB-435): 6.42 µM
- GI50 (MOLT-4 leukemia): 2.58 µM
- TGI (MOLT-4 leukemia): 13.6 µM
- GI50 (NCI-H226 lung): 1.17 µM
- TGI (NCI-H226 lung): 4.7 µM
- GI50 (NCI-H23 lung): 1.09 µM
- TGI (NCI-H23 lung): 5.11 µM
- GI50 (NCI-H460 lung): 1.01 µM
- TGI (NCI-H460 lung): 3.26 µM
- GI50 (NCI-H522 lung): 3.24 µM
- TGI (NCI-H522 lung): 9.31 µM
- GI50 (NCI/ADR-RES ovarian): 5.56 µM
- TGI (NCI/ADR-RES ovarian): 23.4 µM
- GI50 (OVCAR-3 ovarian): 1.55 µM
- TGI (OVCAR-3 ovarian): 5.66 µM
- GI50 (OVCAR-4 ovarian): 1.52 µM
- TGI (OVCAR-4 ovarian): 8.78 µM
- GI50 (OVCAR-5 ovarian): 3.94 µM
- TGI (OVCAR-5 ovarian): 16 µM
- GI50 (OVCAR-8 ovarian): 2.26 µM
- TGI (OVCAR-8 ovarian): 5.88 µM
- GI50 (PC-3 prostate): 1.7 µM
- TGI (PC-3 prostate): 10.3 µM
- GI50 (RPMI-8226 leukemia): 0.615 µM
- TGI (RPMI-8226 leukemia): 4.57 µM
- GI50 (RXF 393 renal): 0.584 µM
- TGI (RXF 393 renal): 4.33 µM
- GI50 (SF-268 CNS): 2.03 µM
- TGI (SF-268 CNS): 6.98 µM
- GI50 (SF-295 CNS): 1.56 µM
- TGI (SF-295 CNS): 11.4 µM
- GI50 (SF-539 CNS): 2.79 µM
- TGI (SF-539 CNS): 7.75 µM
- GI50 (SK-MEL-2 melanoma): 3.31 µM
- TGI (SK-MEL-2 melanoma): 8.1 µM
- GI50 (SK-MEL-28 melanoma): 1.98 µM
- TGI (SK-MEL-28 melanoma): 4.63 µM
- GI50 (SK-MEL-5 melanoma): 0.762 µM
- TGI (SK-MEL-5 melanoma): 2.08 µM
- GI50 (SK-OV-3 ovarian): 2.09 µM
- TGI (SK-OV-3 ovarian): 11 µM
- GI50 (SN12C renal): 0.334 µM
- TGI (SN12C renal): 10.2 µM
- GI50 (SNB-19 CNS): 1.13 µM
- TGI (SNB-19 CNS): 12.4 µM
- GI50 (SNB-75 CNS): 1.75 µM
- TGI (SNB-75 CNS): 14.4 µM
- GI50 (SR leukemia): 1.99 µM
- TGI (SR leukemia): 8.17 µM
- GI50 (T-47D breast): 1.06 µM
- TGI (T-47D breast): 5.44 µM
- GI50 (TK-10 renal): 4.06 µM
- TGI (TK-10 renal): 12.7 µM
- GI50 (U251 CNS): 0.339 µM
- TGI (U251 CNS): 3.17 µM
- GI50 (UACC-257 melanoma): 1.05 µM
- TGI (UACC-257 melanoma): 7.5 µM
- GI50 (UACC-62 melanoma): 1.41 µM
- TGI (UACC-62 melanoma): 3.2 µM
- GI50 (UO-31 renal): 2.16 µM
- TGI (UO-31 renal): 11.6 µM
